US20040132780A1, “Method and compositions for treating migraines” (priority 2001, published 2004)

Assay: pharmacokinetics of etoricoxib compared to traditional NSAIDs
Type: in vivo
Settings: as compared to traditional NSAIDs such as naproxen

- half-life: longer
- time to maximum concentration: shorter
Compound: Cc1ccc(-c2ncc(Cl)cc2-c2ccc(S(C)(=O)=O)cc2)cn1 [Etoricoxib, etoricoxib]
